In PMC5666756, “Fascaplysin Exerts Anti-Cancer Effects through the Downregulation of Survivin and HIF-1α and Inhibition of VEGFR2 and TRKA” (International Journal of Molecular Sciences, 2017):

Legend:
Assay type in all cases: biochemical
[1] = biological target: T1, VEGFR2 (vascular endothelial growth factor receptor 2) (Homo sapiens, UniProt P35968); test: radiometric kinase assay ([γ-33P]ATP), IC50 at several ATP concentrations, Lineweaver-Burk
T1 construct: gene KDR
Source text: radiometric kinase assay ([γ-33P]ATP), IC50 at several ATP concentrations, Lineweaver-Burk on VEGFR2 (vascular endothelial growth factor receptor 2) | fascaplysin is noncompetitive with respect to ATP against TRKA and VEGFR2

[2] = biological target: T2, TRKA (tropomyosin-related kinase A) (Homo sapiens, UniProt P04629); test: as above
T2 construct: gene NTRK1; recombinant human cytoplasmic domain (aa 441–796), C-terminal His-tagged
T2 sequence (P04629 441-796): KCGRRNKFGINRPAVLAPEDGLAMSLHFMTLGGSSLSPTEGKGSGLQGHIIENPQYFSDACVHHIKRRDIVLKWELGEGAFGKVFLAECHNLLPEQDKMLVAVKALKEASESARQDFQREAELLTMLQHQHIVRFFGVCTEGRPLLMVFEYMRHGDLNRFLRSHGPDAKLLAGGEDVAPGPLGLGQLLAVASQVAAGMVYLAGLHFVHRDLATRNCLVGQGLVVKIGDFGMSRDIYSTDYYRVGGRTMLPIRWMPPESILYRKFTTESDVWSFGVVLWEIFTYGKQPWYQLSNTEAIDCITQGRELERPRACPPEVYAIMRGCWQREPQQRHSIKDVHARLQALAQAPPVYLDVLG

VEGFR3 = biological target: T3, VEGFR3 (Homo sapiens, UniProt P35916); test: high-throughput kinase screening assay (IC50, Figure S4)
T3 construct: gene FLT4
T3 sequence (P35916 25-1363): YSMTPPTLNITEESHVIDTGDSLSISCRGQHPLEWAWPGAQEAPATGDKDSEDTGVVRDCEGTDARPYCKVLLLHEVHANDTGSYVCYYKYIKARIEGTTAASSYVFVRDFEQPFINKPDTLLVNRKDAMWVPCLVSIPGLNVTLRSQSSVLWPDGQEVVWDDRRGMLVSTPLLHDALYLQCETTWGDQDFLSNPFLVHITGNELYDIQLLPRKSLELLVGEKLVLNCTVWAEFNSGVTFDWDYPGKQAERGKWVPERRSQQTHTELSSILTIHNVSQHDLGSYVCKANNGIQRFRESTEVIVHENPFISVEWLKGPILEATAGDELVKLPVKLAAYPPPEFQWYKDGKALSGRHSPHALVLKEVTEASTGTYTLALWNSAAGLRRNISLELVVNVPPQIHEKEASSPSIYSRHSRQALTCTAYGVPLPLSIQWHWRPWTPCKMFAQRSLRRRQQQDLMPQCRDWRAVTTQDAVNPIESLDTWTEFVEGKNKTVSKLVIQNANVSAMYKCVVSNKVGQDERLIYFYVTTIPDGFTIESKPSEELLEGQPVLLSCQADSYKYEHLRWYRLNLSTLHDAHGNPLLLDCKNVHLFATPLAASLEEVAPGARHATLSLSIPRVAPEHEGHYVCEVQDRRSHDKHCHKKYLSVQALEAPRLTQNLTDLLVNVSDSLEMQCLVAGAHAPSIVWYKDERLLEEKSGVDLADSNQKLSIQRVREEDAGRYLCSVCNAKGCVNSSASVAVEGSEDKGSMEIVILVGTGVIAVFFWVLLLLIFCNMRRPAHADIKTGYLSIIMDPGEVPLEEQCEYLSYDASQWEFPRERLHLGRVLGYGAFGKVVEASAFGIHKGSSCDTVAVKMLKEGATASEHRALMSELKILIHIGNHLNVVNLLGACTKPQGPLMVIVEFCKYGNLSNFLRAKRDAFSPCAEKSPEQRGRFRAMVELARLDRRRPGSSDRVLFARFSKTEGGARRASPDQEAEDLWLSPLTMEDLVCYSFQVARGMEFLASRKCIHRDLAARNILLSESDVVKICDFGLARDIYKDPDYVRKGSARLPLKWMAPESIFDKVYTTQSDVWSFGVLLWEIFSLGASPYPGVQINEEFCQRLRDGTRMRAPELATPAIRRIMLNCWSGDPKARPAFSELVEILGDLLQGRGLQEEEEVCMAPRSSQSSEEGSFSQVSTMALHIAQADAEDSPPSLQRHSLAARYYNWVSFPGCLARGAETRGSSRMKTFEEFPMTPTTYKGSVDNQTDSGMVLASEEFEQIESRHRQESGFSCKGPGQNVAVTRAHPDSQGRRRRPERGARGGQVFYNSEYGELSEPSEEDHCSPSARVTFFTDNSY

Measured: IC50

T1 sequence (P35968 789-1356): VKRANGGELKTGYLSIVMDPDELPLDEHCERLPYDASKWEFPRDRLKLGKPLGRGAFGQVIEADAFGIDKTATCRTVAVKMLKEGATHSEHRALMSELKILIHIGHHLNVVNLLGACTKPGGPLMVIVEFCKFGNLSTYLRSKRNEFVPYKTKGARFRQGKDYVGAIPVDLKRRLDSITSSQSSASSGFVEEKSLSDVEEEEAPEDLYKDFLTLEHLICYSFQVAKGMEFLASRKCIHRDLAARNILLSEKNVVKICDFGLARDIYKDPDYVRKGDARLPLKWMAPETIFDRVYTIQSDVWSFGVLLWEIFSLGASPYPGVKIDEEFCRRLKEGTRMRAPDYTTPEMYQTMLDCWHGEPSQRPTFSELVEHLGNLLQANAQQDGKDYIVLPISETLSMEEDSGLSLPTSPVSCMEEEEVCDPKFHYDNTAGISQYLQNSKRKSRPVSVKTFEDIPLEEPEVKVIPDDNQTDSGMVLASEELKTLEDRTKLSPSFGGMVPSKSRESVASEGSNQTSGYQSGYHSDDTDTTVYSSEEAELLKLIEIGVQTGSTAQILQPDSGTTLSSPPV

O=C1c2ccccc2-[n+]2ccc3c([nH]c4ccccc43)c21 [Fascaplysin]
2 to 3 µM: all assays above
